From BindingDB's records for doi:10.1016/j.bmcl.2020.127004 (Merck, 2020) come the findings set out here.

Experiment [1] can be described thus: Non-nucleoside inhibition of NS5B polymerase in HCV genotype 2b by Taqman probe based RT-PCR analysis. (In general: Real-time PCR tracks product formation cycle by cycle.)
A short description of experiment [2]: Non-nucleoside inhibition of NS5B polymerase in HCV genotype 2a by Taqman probe based RT-PCR analysis.
A short description of experiment [3]: Non-nucleoside inhibition of NS5B polymerase in HCV genotype 1a by Taqman probe based RT-PCR analysis.
Experiment [4] can be described thus: Non-nucleoside inhibition of NS5B polymerase in HCV genotype 3a by Taqman probe based RT-PCR analysis.
Experiment [5] can be described thus: Non-nucleoside inhibition of NS5B polymerase in HCV genotype 4a by Taqman probe based RT-PCR analysis.
Experiment [6] in a line: Non-nucleoside inhibition of NS5B polymerase C316Y mutant in HCV genotype 1a by Taqman probe based RT-PCR analysis.
Experiment [7] is described as follows: Non-nucleoside inhibition of NS5B polymerase in HCV genotype 1b by Taqman probe based RT-PCR analysis.
Experiment [8] is described as follows: Non-nucleoside inhibition of NS5B polymerase S365A mutant in HCV genotype 1a by Taqman probe based RT-PCR analysis.

pEC50: −log10 of the molar value.

On to `CNC(=O)c1c(-c2ccc(F)cc2)oc2cc(N(C)S(C)(=O)=O)c(-c3ccc4ncn(Cc5ccccc5)c(=O)c4c3)cc12` [US9364482, 49], for which the pEC50 in experiment [1] is 8.03; in experiment [2] it was 7.74; in experiment [3], 8.49; in experiment [4] it was 8.92; in experiment [5], 8.46; in experiment [6], 7.15. Further, the pEC50 in experiment [7] is 8.46; in experiment [8], 6.72.

Regarding `CNC(=O)c1c(-c2ccc(F)cc2)oc2cc(N(C)S(C)(=O)=O)c(-c3ccc4nc(CNC(C)=O)n(Cc5ccc(F)cc5)c(=O)c4c3)cc12` [US9364482, 54], the pEC50 in experiment [1] is 8.23; in experiment [2], 7.24; in experiment [3] it was 8.96; in experiment [4] it was 8.85; in experiment [5], 8.18; in experiment [6], 7.49. In addition, the pEC50 in experiment [7] is 8.55; in experiment [8], 8.08.

For the molecule `CNC(=O)c1c(-c2ccc(F)cc2)oc2cc(N(C)S(C)(=O)=O)c(-c3cc(C)c4nnn(Cc5ccc(F)cc5)c(=O)c4c3)cc12` [US9364482, 74], the pEC50 in experiment [1] is 8.17; in experiment [2] it was 8.21; in experiment [3] it was 8.74; in experiment [4], 8.85; in experiment [5], 9.10; in experiment [6] it was 7.54. Further, the values for the pEC50 in experiment [7] and in experiment [8] were 8.48 and 6.92, respectively.

As to `CNC(=O)c1c(-c2ccc(F)cc2)oc2cc(N(C)S(C)(=O)=O)c(-c3ccc4nnn(C(C)c5ccc(F)cc5)c(=O)c4c3)cc12` (stereo not drawn), the pEC50 in experiment [1] is 8.24; in experiment [2], 8.03; in experiment [3], 8.55; in experiment [4], 9.10; in experiment [5], 8.96; in experiment [6], 7.82. The pEC50 in experiment [7] was 8.54; in experiment [8], 6.56.

As for `CNC(=O)c1c(-c2ccc(F)cc2)oc2cc(N(C)S(C)(=O)=O)c(-c3ccc4nc(C)n(Cc5ccc(F)cc5OC)c(=O)c4c3)cc12`, the pEC50 in experiment [1] was 8.30; in experiment [2], 7.89; in experiment [3], 9.00; in experiment [4], 8.96; in experiment [5], 8.66; in experiment [6], 7.36. Moreover, the pEC50 is 8.82 in experiment [7] and 6.75 in experiment [8].

Regarding `CNC(=O)c1c(-c2ccc(F)cc2)oc2cc(N(C)S(C)(=O)=O)c(-c3ccc4nnn(Cc5ccc(F)cn5)c(=O)c4c3)cc12` [US9364482, 48], the pEC50 in experiment [1] was 8.25; in experiment [2], 7.96; in experiment [3] it was 8.48; in experiment [4], 8.96; in experiment [5] it was 8.68; in experiment [6] it was 7.54. Further, the pEC50 in experiment [7] is 8.57; in experiment [8], 6.35.

Take `CNC(=O)c1c(-c2ccc(F)cc2)oc2cc(N(C)S(C)(=O)=O)c(-c3ccc4nc(C)n(Cc5ccc(F)cc5)c(=O)c4c3)cc12` [US9364482, 55]: the pEC50 in experiment [1] is 8.82; in experiment [2], 8.39; in experiment [3], 9.52; in experiment [4] it was 9.22; in experiment [5], 9.22; in experiment [6] it was 8.54. In addition, the pEC50 in experiment [7] was 8.96; in experiment [8], 8.15.

As to `CNC(=O)c1c(-c2ccc(F)cc2)oc2cc(N(C)S(C)(=O)=O)c(-c3ccc4nc(C)n([C@H](COC)c5ccc(F)cc5)c(=O)c4c3)cc12`, the negative-log EC50 (pEC50) in experiment [1] was 7.96; in experiment [2], 7.72; in experiment [3] it was 9.22; in experiment [4] it was 8.80; in experiment [5], 8.62; in experiment [6], 7.68. Besides, the pEC50 in experiment [7] is 8.96; in experiment [8] it was 7.43.

Regarding `CNC(=O)c1c(-c2ccc(F)cc2)oc2cc(N(C)S(C)(=O)=O)c(-c3ccc4nnn(Cc5ccc(F)cc5)c(=O)c4c3)cc12` [US9364482, 44], the pEC50 is 8.40 in experiment [1]; 7.89 in experiment [2]; 8.77 in experiment [3]; 9.10 in experiment [4]; 8.85 in experiment [5]; 7.92 in experiment [6]. In addition, the figures for the pEC50 in experiment [7] and in experiment [8] were 8.41 and 7.12, respectively.

`CNC(=O)c1c(-c2ccc(F)cc2)oc2cc(N(C)S(C)(=O)=O)c(-c3ccc4nnn([C@H](COC)c5ccc(F)cc5)c(=O)c4c3)cc12` [US9364482, 39]: the negative-log EC50 (pEC50) in experiment [1] was 8.41; in experiment [2], 7.92; in experiment [3] it was 8.92; in experiment [4], 9.00; in experiment [5], 9.15; in experiment [6] it was 7.74. For the same molecule, the pEC50 is 8.59 in experiment [7] and 7.17 in experiment [8].

`CNC(=O)c1c(-c2ccc(F)cc2)oc2cc(N(C)S(C)(=O)=O)c(-c3ccc4nc(C)n(Cc5ccc(F)cc5)c(=O)c4n3)cc12` [US9364482, 68]: the pEC50 in experiment [1] is 8.57; in experiment [2] it was 8.00; in experiment [3] it was 8.96; in experiment [4], 9.00; in experiment [5] it was 8.54; in experiment [6] it was 7.44. Also, the pEC50 in experiment [7] is 8.80; in experiment [8], 6.86.

Regarding `CNC(=O)c1c(-c2ccc(F)cc2)oc2cc(N(C)S(C)(=O)=O)c(-c3cc(OC)c4nnn(Cc5ccc(F)cc5)c(=O)c4c3)cc12` [US9364482, 71], the pEC50 in experiment [1] was 8.51; in experiment [2], 8.41; in experiment [3], 9.10; in experiment [4], 9.15; in experiment [5], 9.40; in experiment [6] it was 8.34. In addition, the pEC50 in experiment [7] was 8.80; in experiment [8], 7.92.

For `CNC(=O)c1c(-c2ccc(F)cc2)oc2cc(N(C)S(C)(=O)=O)c(-c3ccc4nnn(C(CO)c5ccc(F)cc5)c(=O)c4c3)cc12` (stereo not drawn), the pEC50 is 8.22 in experiment [1]; 7.70 in experiment [2]; 8.14 in experiment [3]; 9.05 in experiment [4]; 8.35 in experiment [5]; 6.28 in experiment [6]. In addition, the pEC50 was 8.25 in experiment [7] and 5.95 in experiment [8].

Consider `CNC(=O)c1c(-c2ccc(F)cc2)oc2cc(N(C)S(C)(=O)=O)c(-c3ccc4nc(C)n(Cc5ccc(F)cn5)c(=O)c4c3)cc12`, for which the pEC50 is 8.38 in experiment [1]; 7.96 in experiment [2]; 8.89 in experiment [3]; 8.77 in experiment [4]; 8.80 in experiment [5]; 7.44 in experiment [6]. For the same molecule, the pEC50 in experiment [7] was 8.59; in experiment [8] it was 6.64.

Regarding `CNC(=O)c1c(-c2ccc(F)cc2)oc2cc(N(C)S(C)(=O)=O)c(-c3ccc4c(n3)C(=O)N(Cc3ccc(F)cc3)CO4)cc12` [US9364482, 6], the pEC50 in experiment [1] is 7.72; in experiment [2], 8.34; in experiment [3], 8.80; in experiment [4], 8.74; in experiment [5] it was 9.52; in experiment [6], 8.46. Moreover, the pEC50 in experiment [7] was 8.89; in experiment [8], 9.15.

Turning to `CNC(=O)c1c(-c2ccc(F)cc2)oc2cc(N(C)S(C)(=O)=O)c(-c3ccc4nc(COC)n(Cc5ccc(F)cc5)c(=O)c4c3)cc12` [US9364482, 53], the pEC50 was 8.43 in experiment [1]; 8.09 in experiment [2]; 8.68 in experiment [3]; 9.10 in experiment [4]; 9.05 in experiment [5]; 8.39 in experiment [6]. Besides, the pEC50 is 8.62 in experiment [7] and 7.72 in experiment [8].

What is called pEC50 is −log10 of the EC50, conventionally taken in molar units. A high value points to a small EC50.
